Consider 20 compounds from PubChem BioAssay (NCI).

Experiment in all cases: NCI-60 cell line screen, 48 h
Assay [1] deals with A549 NSCLC.
Assay [2] has as its system K-562 leukemia.
Assay [3] concerns HL-60(TB) leukemia.
Assay [4] deals with HT29 colon.
Assay [5] concerns HCC-2998 colon.
For assay [6], the system named is SK-MEL-2 melanoma.
The test system of assay [7] is SF-539 CNS.
Assay [8] relates to NCI-H23 lung.
Assay [9] relates to CAKI-1 renal.
In assay [10] the test system is HCT-15 colon.
Assay [11] deals with HOP-62 NSCLC.
Assay [12] deals with SF-295 CNS.
Assay [13] deals with NCI-H522 lung.
Assay [14] deals with M14 melanoma.
Assay [15] relates to KM12 colon.
The subject of assay [16] is T-47D breast.
The subject of assay [17] is PC-3 prostate.
Assay [18] concerns NCI/ADR-RES ovarian.

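Method: 48-hour compound exposure of cells in 96-well plates, five concentrations, linear interpolation of endpoints. TGI denotes the concentration required for complete inhibition of growth.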 Some results are limits rather than exact numbers.

Regarding `COC1=CC(=O)C2C(C1=O)C(c1ccc(OC)c(OC)c1)[C@H]2C` (stereo partly drawn), the TGI was > 100 µM in [1]; 54.4 µM in [2]; 46.7 µM in [3]; > 100 µM in [4]; > 100 µM in [5]; > 100 µM in assay [6]. For the same compound, the TGI in assay [7] was > 100 µM; in [8], 42.9 µM; in assay [9], 24 µM; in [10] it was 34.5 µM; in [11], > 100 µM; in assay [12], > 100 µM. The TGI is 26.1 µM in assay [13], 34.9 µM in assay [14] and > 100 µM in assay [15].
In the case of `CC/C(SC)=[N+](\C)[O-]`, the TGI in [1] was > 100 µM; in assay [2], > 100 µM; in [3], 25.2 µM; in assay [4], > 100 µM; in assay [5] it was > 100 µM; in [6], > 100 µM. Moreover, the TGI in assay [7], in assay [8], in assay [9], in assay [10], in [11] and in assay [12] was > 100 µM throughout. Also, the TGI was > 62.3 µM in [13], > 100 µM in assay [14] and > 100 µM in assay [15].
Regarding `CC1(O)Oc2ccc3ccccc3c2C=C1C(N)=O` (stereo not drawn), the TGI in assay [2], in assay [16], in assay [3], in [5], in [6] and in [7] was > 100 µM throughout. Besides, the TGI in [8], in assay [17], in assay [9], in [10], in assay [11] and in [12] was > 100 µM throughout. Also, the TGI in assay [14] and in [15] was > 100 µM throughout.
As to `CCN(CC)CCCCC1CCN(CC(=O)N2c3cc(Cl)ccc3NC(=O)CC2C)CC1` (stereo not drawn), the TGI in assay [1], in assay [2], in assay [3], in assay [4], in [5] and in [8] was > 100 µM each time. Besides, the TGI in [9], in assay [10], in assay [11], in assay [12] and in [14] was > 100 µM in each case.
With `CN1N=C2c3ccccc3CC[C@H]2C1c1cccc(O)c1` (stereo partly drawn), the TGI in [1], in assay [2], in assay [3], in assay [4], in assay [5] and in assay [6] was > 100 µM in each case. The TGI in [7], in assay [8], in [10], in assay [11], in assay [12] and in assay [13] was > 100 µM in each case. The TGI in assay [14] and in [15] was > 100 µM each time.
`O=C1NC2C(CCO)CC=C[C@H]2c2cc3c(cc21)OCO3` (stereo partly drawn): the TGI in assay [1], in [2], in [3], in [4], in assay [7] and in assay [8] was > 100 µM throughout. Also, the TGI in [10], in assay [11], in assay [12], in assay [13], in [14] and in assay [15] was > 100 µM in each case.
Turning to `C/C(=N/NC(N)=S)C(CN(C)C)C(C1=C(O)c2ccccc2OC1)c1ccccc1` (stereo not drawn), the TGI in assay [1], in assay [2], in assay [3], in assay [4], in assay [5] and in assay [6] was > 100 µM throughout. Moreover, the TGI in assay [7], in [8], in [9], in assay [10], in assay [11] and in [12] was > 100 µM in each case. Moreover, the TGI in assay [13], in [14] and in assay [15] was > 100 µM in each case.
In the case of `Nc1ncnc2c1ncn2C1CC(OC2CCCCO2)C(CO)O1` (stereo not drawn), the TGI in assay [1], in assay [2], in assay [3], in assay [4], in assay [5] and in assay [6] was > 100 µM throughout. Also, the TGI in [7], in [8], in assay [10], in assay [11], in assay [12] and in [13] was > 100 µM in each case. The TGI in assay [14] and in [15] was > 100 µM in each case.
Take `COc1ccc2c(c1)OC(c1ccccc1O)CC2=O` (stereo not drawn): the TGI in assay [1] is > 100 µM; in assay [2], > 100 µM; in assay [4] it was > 100 µM; in assay [5] it was > 100 µM; in assay [6], 77.5 µM; in [7], > 100 µM. The TGI in [8] is > 100 µM; in assay [9] it was > 100 µM; in assay [10], > 100 µM; in [11], > 100 µM; in assay [12] it was > 100 µM; in assay [13], 92.8 µM. Besides, the TGI in assay [14] and in [15] was > 100 µM in each case.
Regarding `CC1=C2CN(C(=O)OCC(C)C)CCC2C2=C(C(=O)c3ccccc3C2=O)C1C` (stereo not drawn), the TGI in assay [1], in assay [2], in assay [16], in assay [3], in assay [4] and in assay [5] was > 10 µM throughout. In addition, the TGI in assay [8], in assay [17], in assay [9], in [10], in assay [11] and in assay [12] was > 10 µM each time. Besides, the TGI in assay [14] and in assay [15] was > 10 µM each time.
With `COC(=O)N/N=C(/Cc1occc(=O)c1O)C(=O)Nc1ccc([N+](=O)[O-])cc1[N+](=O)[O-]`, the TGI in assay [1], in [2], in assay [3], in assay [4], in [5] and in assay [6] was > 100 µM throughout. For the same compound, the TGI in assay [7], in [8], in assay [9], in assay [10], in assay [11] and in assay [12] was > 100 µM throughout. For the same compound, the TGI in assay [13], in assay [14] and in assay [15] was > 100 µM each time.
Turning to `CCOC(=O)Nn1c(C)cc(C(=O)OC)c1C`, the TGI in assay [1], in [2], in [3], in [4], in [5] and in assay [6] was > 100 µM in each case. For the same compound, the TGI in assay [7], in assay [8], in assay [9], in assay [10], in assay [11] and in assay [12] was > 100 µM throughout. For the same compound, the TGI in assay [13], in assay [14] and in assay [15] was > 100 µM in each case.
In the case of `CC(C)C1COC(c2ccc3ccccc3c2-c2c(O[Si](C)(C)C(C)(C)C)ccc3ccccc23)=N1` (stereo not drawn), the TGI in [1] stood at 31.7 µM; in assay [2], 31.9 µM; in assay [3], 33.1 µM; in [4] it was 29 µM; in [5] it was 28.9 µM; in [6] it was 30.4 µM. The TGI stood at 32.4 µM in assay [7]; 30.7 µM in [8]; 45.2 µM in [9]; 46.7 µM in assay [10]; 33.4 µM in assay [11]; 32.1 µM in assay [12]. In addition, the TGI in [13] worked out at 29.8 µM; in assay [14], 29.2 µM; in assay [15], 35.7 µM.
Regarding `CC(C)(C)C(=O)/C=C/c1cccc(Oc2ccccc2)c1`, the TGI in assay [1] turned out to be 48.8 µM; in [2], 30.1 µM; in assay [4] it was 22.1 µM; in assay [5], 36.5 µM; in assay [6], 27.6 µM; in assay [7] it was 40.2 µM. The TGI is 40.4 µM in [10]; > 100 µM in assay [11]; 25.8 µM in [12]; 29.8 µM in assay [13]; 34.7 µM in [14]; 25.6 µM in [15].
`Cc1cc(=O)[nH]c(NNC(C#N)c2ccco2)n1` (stereo not drawn): the TGI in [1], in assay [2], in [3], in assay [4], in [6] and in assay [7] was > 100 µM throughout. In addition, the TGI in assay [8], in assay [9], in assay [10], in assay [11], in [12] and in [13] was > 100 µM throughout. In addition, the TGI in assay [14] and in assay [15] was > 100 µM in each case.
Consider `Fc1ccc2c3c([nH]c2c1)CCNC3`, for which the TGI in assay [1], in [18], in [2], in [16], in assay [3] and in assay [4] was > 100 µM throughout. In addition, the TGI in assay [5], in [7], in assay [8], in [10], in [11] and in [12] was > 100 µM in each case. Also, the TGI in assay [14] and in assay [15] was > 100 µM throughout.
As to `COc1ccc(C2S/C(=C\c3ccccc3)C(=O)N2NC(=O)Cc2ccccc2)cc1` (stereo not drawn), the TGI in assay [1], in assay [2], in assay [3], in [4], in assay [6] and in assay [7] was > 100 µM throughout. In addition, the TGI in assay [8], in assay [9], in [10], in [11], in assay [12] and in [13] was > 100 µM throughout. Further, the TGI in assay [14] and in assay [15] was > 100 µM in each case.
With `CCCc1c(C(=O)OCC)[nH]c(C(=O)CCC(=O)c2[nH]c(C(=O)OCC)c(CCC)c2C(=O)OCC)c1C(=O)OCC`, the TGI in assay [1], in [2], in assay [3], in assay [4], in assay [5] and in [6] was > 100 µM each time. The TGI in assay [7], in [8], in assay [9], in assay [10], in assay [12] and in assay [13] was > 100 µM throughout. The TGI in assay [14] and in assay [15] was > 100 µM each time.
On to `O=C(N/N=C(\c1nc2ccc(Cl)cc2[nH]c1=O)C(O)c1ccccc1Cl)c1ccncc1` (stereo not drawn), for which the TGI in assay [1], in [2], in assay [3], in assay [4], in assay [5] and in assay [6] was > 100 µM each time. The TGI in assay [7], in [8], in [9], in assay [10], in assay [12] and in assay [13] was > 100 µM each time. Moreover, the TGI in [14] and in assay [15] was > 100 µM each time.
Take `CN(C)c1nc(=NCc2cccnc2)ss1`: the TGI in assay [1], in assay [2], in assay [16], in [3], in assay [4] and in assay [8] was > 10 µM each time. Also, the TGI in assay [17], in [9], in [10], in assay [11], in assay [12] and in assay [14] was > 10 µM throughout. Also, the TGI in [15] is > 10 µM.
